Patent US20250282736A1, “SMALL MOLECULE MODULATORS OF HUMAN PREGNANE X RECEPTOR” (ST. JUDE CHILDREN'S RESEARCH HOSPITAL, priority 2022, published 2025)

Key:
[1] = target: T1, hPXR (Homo sapiens (Human), UniProt O75469); test: hPXR binding assay; conditions: for inhibition at 10 µM: read-out: Binding (% inhibition at 10 μM)
[2] = target: T1, hPXR; test: cell-based hPXR agonistic assay; conditions: for Agonist (% activation at 10 μM): rifampicin at 10 μM as 100% activation, DMSO (0.3%) as 0%
[3] = target: T1, hPXR; test: cell-based hPXR antagonistic assay; conditions: for inhibition at 10 µM: read-out: Antagonist (% inhibition at 10 μM)
[4] = target: T1, hPXR; test: cell-based hPXR inverse agonistic assay; conditions: for inhibition at 10 µM: read-out: Inverse agonist (% inhibition at 10 μM)
[5] = read-out: Binding (IC50/μM), hPXR binding assay

T1 sequence (O75469 whole entry): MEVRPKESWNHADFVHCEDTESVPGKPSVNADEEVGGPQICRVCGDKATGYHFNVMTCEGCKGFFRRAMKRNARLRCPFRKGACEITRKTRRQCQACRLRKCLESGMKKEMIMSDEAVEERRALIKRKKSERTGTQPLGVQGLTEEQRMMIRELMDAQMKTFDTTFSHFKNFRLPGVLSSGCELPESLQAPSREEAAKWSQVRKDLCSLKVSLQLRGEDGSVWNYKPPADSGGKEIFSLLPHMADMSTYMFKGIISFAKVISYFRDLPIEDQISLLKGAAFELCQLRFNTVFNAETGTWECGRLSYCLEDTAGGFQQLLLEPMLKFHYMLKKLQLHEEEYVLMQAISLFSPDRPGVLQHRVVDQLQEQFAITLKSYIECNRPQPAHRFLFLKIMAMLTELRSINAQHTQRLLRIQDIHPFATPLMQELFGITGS

SMILES: CCC(C)Oc1ccc(C(C)(C)C)cc1NC(=O)c1nnn(-c2ccccc2OC)c1C (centres unmarked) [I3]
- inhibition at 10 µM [1]: 88%
- IC50 [1, 5]: 0.0085 ± 0.0011 µM
- EC50 [2]: 66 ± 13 nM
- Agonist (% activation at 10 μM) [2]: (25 ± 3)%
- IC50 [3]: 61 ± 11 nM
- inhibition at 10 µM [3]: 66%
- IC50 [4]: > 30000 nM

SMILES: COc1ccc(OC)c(-n2nnc(C(=O)Sc3ccc(NC(C)=O)cc3)c2C)c1 [K2]
- inhibition at 10 µM [1]: 38%
- IC50 [1, 5]: 8.47 ± 0.78 µM
- EC50 [2]: > 30000 nM
- IC50 [3]: > 30000 nM
- IC50 [4]: > 30000 nM

SMILES: COc1ccc(OC)c(-n2nnc(NC(=O)Nc3ccc(C(C)(C)C)cc3)c2C)c1 [K3]
- IC50 [1]: > 30 µM
- EC50 [2]: 3390 ± 140 nM
- Agonist (% activation at 10 μM) [2]: (61 ± 4)%
- IC50 [3]: > 30000 nM
- IC50 [4]: > 30000 nM

SMILES: COc1ccc(OC)c(-n2nnc(NC(=O)Nc3cccc(C(C)(C)C)c3)c2C)c1 [K4]
- inhibition at 10 µM [1]: 24%
- IC50 [1, 5]: 0.39 ± 0.19 µM
- EC50 [2]: 1450 ± 250 nM
- Agonist (% activation at 10 μM) [2]: (103 ± 5)%
- IC50 [3]: > 30000 nM
- IC50 [4]: > 30000 nM

SMILES: COc1ccc(OC)c(-n2nnc(C(=O)NS(=O)(=O)c3ccc(C(C)(C)C)cc3)c2C)c1 [K5, N-((4-(tert-butyl)phenyl)sulfonyl)-1-(2,5-dimethoxyphenyl)-5-methyl-1H-1,2,3-triazole-4-carboxamide]
- inhibition at 10 µM [1]: 43%
- IC50 [1, 5]: 10.7 ± 0.23 µM
- EC50 [2]: 7460 ± 1110 nM
- Agonist (% activation at 10 μM) [2]: (32 ± 2)%
- IC50 [3]: > 30000 nM
- IC50 [4]: > 30000 nM

SMILES: COc1ccc(OC)c(-n2nnc(S(=O)(=O)Nc3cccc(C(C)(C)C)c3)c2C)c1 [K6, N-(3-(tert-butyl)phenyl)-1-(2,5-dimethoxyphenvl)-5-methyl-1H-1,2,3-triazole-4-sulfonamide]
- inhibition at 10 µM [1]: 97%
- IC50 [1, 5]: 0.0147 ± 0.0026 µM
- EC50 [2]: 21 nM
- Agonist (% activation at 10 μM) [2]: (136 ± 26)%
- IC50 [3]: > 30000 nM
- IC50 [4]: > 30000 nM

SMILES: COc1ccc(OC)c(-n2nnc(NS(=O)(=O)c3ccc(C(C)(C)C)cc3)c2C)c1 [K7]
- inhibition at 10 µM [1]: 92%
- IC50 [1, 5]: 0.33 µM
- EC50 [2]: 390 nM
- Agonist (% activation at 10 μM) [2]: (68 ± 5)%
- IC50 [3]: 10700 ± 2390 nM
- inhibition at 10 µM [3]: 25%
- IC50 [4]: > 30000 nM

SMILES: COc1ccc(OC)c(-n2nnc(N(S(=O)(=O)c3ccc(C(C)(C)C)cc3)S(=O)(=O)c3ccc(C(C)(C)C)cc3)c2C)c1 [K8]
- inhibition at 10 µM [1]: 70%
- IC50 [1, 5]: 0.14 µM
- EC50 [2]: 190 nM
- Agonist (% activation at 10 μM) [2]: (21 ± 3)%
- IC50 [3]: 1450 ± 200 nM
- inhibition at 10 µM [3]: 49%
- IC50 [4]: > 30000 nM

SMILES: COc1ccc(OC)c(-n2nnc(C(=O)Nc3cc(OCCOCCOCCOCCNC(=O)CCCC[C@@H]4SC[C@@H]5NC(=O)N[C@@H]54)cc(C(C)(C)C)c3)c2C)c1 [L1]
- IC50 [1]: > 30 µM
- EC50 [2]: > 30000 nM
- IC50 [3]: 5440 ± 1000 nM
- inhibition at 10 µM [3]: 40%
- IC50 [4]: > 30000 nM

SMILES: CCC[C@H](CC)Oc1ccc(C(C)(C)C)cc1NC(=O)c1nnn(-c2cc(OC)ccc2OC)c1C [M1, (S)—N-(5-(Tert-Butyl)-2-(Hexan-3-yloxy)Phenyl)-1-(2,5-Dimethoxyphenyl)-5-Methyl-1H-1,2,3-Triazole-4-Carboxamide]
- inhibition at 10 µM [1]: 93%
- IC50 [1, 5]: 0.015 ± 0.003 µM
- EC50 [2]: > 30000 nM
- IC50 [3]: 6.9 ± 0.5 nM
- inhibition at 10 µM [3]: 105%
- IC50 [4]: 1.1 ± 0.5 nM
- inhibition at 10 µM [4]: 165%

SMILES: CCC[C@@H](CC)Oc1ccc(C(C)(C)C)cc1NC(=O)c1nnn(-c2cc(OC)ccc2OC)c1C [M2, (R)—N-(5-(Tert-Butyl)-2-(Hexan-3-yloxy)Phenyl)-1-(2,5-Dimethoxyphenyl)-5-Methyl-1H-1,2,3-Triazole-4-Carboxamide]
- inhibition at 10 µM [1]: 88%
- IC50 [1, 5]: 0.019 ± 0.003 µM
- EC50 [2]: > 30000 nM
- IC50 [3]: 52 ± 10 nM
- inhibition at 10 µM [3]: 103%
- IC50 [4]: 8.4 ± 4 nM
- inhibition at 10 µM [4]: 130%

SMILES: CCC[C@H](CC)Oc1ccccc1NC(=O)c1nnn(-c2cc(OC)ccc2OC)c1C [M3, (S)-1-(2,5-Dimethoxyphenyl)-N-(2-(Hexan-3-yloxy)Phenyl)-5-Methyl-1H-1,2,3-Triazole-4-Carboxamide]
- inhibition at 10 µM [1]: 77%
- IC50 [1, 5]: 0.013 ± 0.003 µM
- EC50 [2]: > 30000 nM
- IC50 [3]: 33 ± 4 nM
- inhibition at 10 µM [3]: 107%
- IC50 [4]: 3.4 ± 0.3 nM
- inhibition at 10 µM [4]: 106%

SMILES: CCC[C@H](CC)Oc1ccc(C(=O)OC)cc1NC(=O)c1nnn(-c2cc(OC)ccc2OC)c1C [M4, Methyl (S)-3-(1-(2,5-Dimethoxyphenyl)-5-Methyl-1H-1,2,3-Triazole-4-Carboxamido)-4-(Hexan-3-yloxy)Benzoate]
- IC50 [1]: 0.003 µM
- inhibition at 10 µM [1]: 84%
- EC50 [2]: > 30000 nM
- IC50 [3]: 6 nM
- inhibition at 10 µM [3]: 112%
- IC50 [4]: 1 nM
- inhibition at 10 µM [4]: 142%

SMILES: CCC[C@H](CC)Oc1ccc(C(C)(C)C)cc1NC(=O)c1nnn(-c2cc(OC)c(OC)cc2OC)c1C [M9, (S)—N-(5-(Tert-Butyl)-2-(Hexan-3-yloxy)Phenyl)-5-Methyl-1-(2,4,5-Trimethoxyphenyl)-1H-1,2,3-Triazole-4-Carboxamide]
- inhibition at 10 µM [1]: 91%
- IC50 [1, 5]: 0.0078 ± 0.0001 µM
- EC50 [2]: 13 ± 10 nM
- Agonist (% activation at 10 μM) [2]: (69 ± 4)%
- IC50 [3]: 120 ± 10 nM
- inhibition at 10 µM [3]: 32%
- IC50 [4]: > 30000 nM

SMILES: CCC[C@H](CC)Oc1ccc(C(C)(C)C)cc1NC(=O)c1nnn(-c2cc(OC)c(F)cc2OC)c1C [M10, (S)—N-(5-(Tert-Butyl)-2-(Hexan-3-yloxy)Phenyl)-1-(4-Fluoro-2,5-Dimethoxyphenyl)-5-Methyl-1H-1,2,3-Triazole-4-Carboxamide]
- inhibition at 10 µM [1]: 92%
- IC50 [1, 5]: 0.02 ± 0.005 µM
- EC50 [2]: > 30000 nM
- IC50 [3]: 23 ± 3 nM
- inhibition at 10 µM [3]: 104%
- IC50 [4]: 4.4 ± 1.5 nM
- inhibition at 10 µM [4]: 92%

SMILES: CCC[C@H](CC)Oc1ccc(C(C)(C)C)cc1NC(=O)c1nnn(-c2cc(C)c(OC)cc2OC)c1C [M11, (S)—N-(5-(Tert-Butyl)-2-(Hexan-3-yloxy)Phenyl)-1-(2,4-Dimethoxy-5-Methylphenyl)-5-Methyl-1H-1,2,3-Triazole-4-Carboxamide]
- IC50 [1]: 0.045 ± 0.013 µM
- inhibition at 10 µM [1]: 94%
- EC50 [2]: 6.6 ± 0.2 nM
- Agonist (% activation at 10 μM) [2]: (92 ± 8)%
- IC50 [3]: 65000 ± 28000 nM
- inhibition at 10 µM [3]: 15%
- IC50 [4]: > 30000 nM

SMILES: CCC[C@H](CC)Oc1ccc(C(C)(C)C)cc1NC(=O)c1nnn(-c2cc(Cl)c(Cl)cc2OC)c1C [M12, (S)—N-(5-(Tert-Butyl)-2-(Hexan-3-yloxy)Phenyl)-1-(4,5-Dichloro-2-Methoxyphenyl)-5-Methyl-1H-1,2,3-Triazole-4-Carboxamide]
- inhibition at 10 µM [1]: 90%
- IC50 [1, 5]: 0.23 ± 0.1 µM
- EC50 [2]: > 30000 nM
- IC50 [3]: 320 ± 20 nM
- inhibition at 10 µM [3]: 99%
- IC50 [4]: 65 ± 39 nM
- inhibition at 10 µM [4]: 97%
